Entries after “also recorded” stand apart in the source; their conditions may differ.

The source of these data is patent US20120003661A1, “METHODS AND DEVICES FOR THE SELECTIVE DETECTION OF MICROORGANISMS” (C3 JIAN, INC., priority 2010, published 2012).

One experiment has as its system bacteria, fungi, and/or yeasts. It is filed as binding. The conditions noted are these: microorganism(s) listed as target(s) of the targeting peptide; wrapped target lists given cell by cell.
On to PF-015 (SIDKRNLYNLKYYE), for which the “Target(s)” value is “E. faecalis, C. jeikeium”.

For PF-543, the “Target(s)” value is reported as “C. albicans hyphae”.

On to PF-159 (TMAFVEKAQLRVPVGDDLPV), for which the “Target(s)” value was “S. epidermidis”.

“1T-297 (RSLRLNNALTKLPKLWYNRIKEAFYAYNDYDK)”: the “Target(s)” value was “A. naeslundii, F. nucleatum, T. denticola,; also recorded: S. mitis, S. mutans, S. oralis”.

In the case of PF-012 (WRGPNTEAGGKSANNIVQVGGAPT), the “Target(s)” value was “S. epidermidis, M. luteus, P. mirabilis,; also recorded: E. coli, P. aeruginosa,; also recorded: MRSA, S. pneumoniae, C. jeikeium,; also recorded: C. jejuni”.

In the case of “PF-068 (SHLINNFGLSVINPSTPICLNFSPVFNLLTVYGITCN)”, the “Target(s)” value is recorded as “S. epidermidis, M. luteus, P. mirabilis,; also recorded: E. coli, P. aeruginosa,; also recorded: C. albicans, MRSA, S. pneumoniae,; also recorded: E. faecalis, C. jeikeium”.

As to 1T-266 (RAGTWLVVDEIR), the “Target(s)” value was “S. sanguinis”.

Take 1T-262 (LSLPLIVLTKSI): the “Target(s)” value is recorded as “A. naeslundii, F. nucleatum, P. gingivalis,; also recorded: S. epidermidis, S. gordonii,; also recorded: S. mitis, S. mutans, S. oralis,; also recorded: S. salivarious, S. sanguinis”.

In the case of PF-629 (GLAAIATVFALY), the “Target(s)” value was “yeast and hyphal forms”.

For PF-153 (GILARADCSQIA), the “Target(s)” value is “M. luteus, P. mirabilis, E. coli, and MRSA”.

Regarding PF-021 (FSLNFSKQKYVTVN), the “Target(s)” value was “yeast and hyphal forms; also recorded: S. epidermidis, M. luteus, P. mirabilis,; also recorded: E. coli, C. albicans, E. faecalis,; also recorded: C. jeikeium”.

On to 1T-15 (DVILRVEAQ), for which the “Target(s)” value is “yeast and hyphal forms”.

For the substance 1T-268 (PITPKKEKCGLGTYAPKNPVFSKSRV), the “Target(s)” value is “F. nucleatum, S. mutans, S. oralis,; also recorded: S. sanguinis”.

Turning to PF-154 (GIKKSKHPSTDDYVVKTTIDSL), the “Target(s)” value is given as “S. mutans”.

Consider “PF-073 (CPSVTMDACALLQKFDFCNNISHFRHFFAIKQPIER)”, for which the “Target(s)” value was “S. epidermidis, M. luteus, P. aeruginosa,; also recorded: C. albicans, MRSA,; also recorded: S. pneumoniae, E. faecalis”.

As to “Rv1535 (DPLVDGAARLLSIPLRHLYAALWRVGLLEVQA)”, the “Target(s)” value is recorded as “C. albicans”.

Regarding 1T-282 (ISLVFPAYT), the “Target(s)” value is reported as “F. nucleatum, P. gingivalis, S. gordonii,; also recorded: S. mitis, S. mutans, S. oralis,; also recorded: S. salivarious, S. sanguinis”.

As to PF-141 (VVRRFQGM), the “Target(s)” value is “C. albicans hyphae; also recorded: S. epidermidis, M. luteus, C. albicans,; also recorded: MRSA, C. jeikeium”.

Consider 1T-14 (ALAGLAGLISGK), for which the “Target(s)” value was “yeast and hyphal forms”.

Turning to “PF-126 (FSPEAFGIGAAGVLGSFVTGLLIGWVASLLRKAK)”, the “Target(s)” value was “S. epidermidis, M. luteus, P. mirabilis,; also recorded: E. coli, P. aeruginosa,; also recorded: C. albicans, MRSA, S. pneumoniae,; also recorded: E. faecalis, C. jeikeium,; also recorded: C. jejuni”.

Consider PF-023 (MTKNTIISLENEKTQINDSENESSDLRKAK), for which the “Target(s)” value is reported as “M. luteus, C. jeikeium”.

Take PF-045 (LDINDYRSTY): the “Target(s)” value was “S. epidermidis, E. coli, E. faecalis,; also recorded: C. jejuni”.

Turning to PF-138 (AVHHSLLFR), the “Target(s)” value is “S. epidermidis, M. luteus, P. mirabilis,; also recorded: E. coli, C. albicans,; also recorded: MRSA, C. jeikeium, C. jejuni”.

As to PF-018 (YYKTYFKEV), the “Target(s)” value is recorded as “E. coli, C. jeikeium”.

On to PF-008 (MIEIGSIAYLNGGSKKYNHILNQENR), for which the “Target(s)” value is “S. epidermidis, M. luteus, MRSA,; also recorded: C. jejuni”.

Take PF-160 (SFHASLTKNEKPIKSTG): the “Target(s)” value is listed as “S. epidermidis”.

For the substance PF-042 (LLLSYFRYTGALLQSLF), the “Target(s)” value is listed as “S. epidermidis, M. luteus, P. mirabilis,; also recorded: E. coli, P. aeruginosa,; also recorded: C. albicans, MRSA, S. pneumoniae,; also recorded: E. faecalis, C. jeikeium”.

In the case of PF-156 (LITAEQPATAPIAGK), the “Target(s)” value is “S. epidermidis, C. jeikeium”.

Turning to PF-020 (MKIILLLFLIFGFIVVVTLKSEHQLTLFSI), the “Target(s)” value is on record as “S. epidermidis, M. luteus, C. albicans,; also recorded: MRSA, S. pneumoniae,; also recorded: E. faecalis”.

As to “PF-056 (AEQLFGKQKQRGVDLFLNRLTIILSILFFVLMICISYLGM)”, the “Target(s)” value was “S. epidermidis, M. luteus, P. mirabilis,; also recorded: E. coli, P. aeruginosa,; also recorded: C. albicans, MRSA, S. pneumoniae,; also recorded: E. faecalis, C. jeikeium”.

As to 1T-265 (GMFENLLMINFQIMNDLKIEIVVKDRICAV), the “Target(s)” value is given as “A. naeslundii, F. nucleatum, P. gingivalis,; also recorded: S. epidermidis, S. gordonii,; also recorded: S. mitis, S. mutans, S. oralis,; also recorded: S. salivarious, S. sanguinis”.

As for “1T-273 (YNEPNYKWLESYKIYKQRCEDRTGMYYTEET)”, the “Target(s)” value is on record as “F. nucleatum, P. gingivalis, T. denticola,; also recorded: S. mitis, S. mutans, S. oralis”.

In the case of PF-621 (PPSSFLV), the “Target(s)” value is “yeast and hyphal forms”.

Consider PF-017 (ESIIE), for which the “Target(s)” value is “E. coli”.

Still in this experiment, the particulars now being: microorganism(s) that the targeting peptide binds, as listed in Table 2.
As to “PF-C098 (PETKGKVSAFVFGIVVANVIAVVYILYMLREIGIIQ)”, the “Target(s)” value is given as “A. naeslundii, F. nucleatum, P. gingivalis,; also recorded: S. mutans, T. denticola”.

As for PF-791 (IFLTTQNTDYSEHNAA), the “Target(s)” value was “S. mutans”.

As for PF-V (KFINGVLSQFVLERK), the “Target(s)” value is recorded as “S. mutans”.

On to “PF-C065 (DEERYSDSYFLKEKVFYLILALFLILFHQKYLYFLEIITI)”, for which the “Target(s)” value is “A. naeslundii, F. nucleatum, P. gingivalis,; also recorded: S. mutans”.

Consider PF-786 (LSERERRRLKRGII), for which the “Target(s)” value was “Mycobacteria spp”.

“PF-C095 (LLALNMNEDTYYFELFFIFDNQNKKWLIFDLKERG)”: the “Target(s)” value was “A. naeslundii, F. nucleatum, P. gingivalis,; also recorded: S. mutans”.

With PF-C134 (NELMKYPATLTATATTPGIKYSHLCSVCL), the “Target(s)” value is reported as “A. naeslundii, F. nucleatum, P. gingivalis,; also recorded: S. mutans, T. denticola”.

Staying with this experiment, now noted: microorganism(s) the targeting peptide binds, as listed in Table 2.
Take “1T-139 (AVAGAAVGALLGNDARSTAVGAAIGGALGAGAGELTKNK)”: the “Target(s)” value is listed as “A. naeslundii, S. gordonii, S. mitis,; also recorded: S. mutans, S. oralis”.

In the case of “1T-225 (RRSLGNSASFAEWIEYIRYLHYIIRVQFIHFFSKNKKI)”, the “Target(s)” value was “A. naeslundii, F. nucleatum, P. gingivalis,; also recorded: S. epidermidis, S. gordonii,; also recorded: S. mitis, S. mutans, S. oralis,; also recorded: S. salivarious, S. sanguinis”.

For 1T-6 (KFINGVLSQFVLERK), the “Target(s)” value is recorded as “S. mutans”.

Turning to 1T-126 (QGLARPVLRRIPL), the “Target(s)” value was “S. gordonii, S. mitis, S. mutans”.

Consider “1T-97 (GVAERNLDRITVAVAIIWTITIVGLGLVAKLG)”, for which the “Target(s)” value is listed as “A. naeslundii, F. nucleatum, P. gingivalis,; also recorded: S. epidermidis, S. gordonii,; also recorded: S. mitis, S. mutans, S. oralis,; also recorded: S. salivarious, S. sanguinis”.

On to 1T-184 (ALLVLNLLLMQFFFGKNM), for which the “Target(s)” value was “A. naeslundii, F. nucleatum, P. gingivalis,; also recorded: T. denticola, S. gordonii,; also recorded: S. mitis, S. mutans, S. oralis,; also recorded: S. salivarious, S. sanguinis”.

With 1T-34 (AFWLNILLTLLGYIPGIVHAVYIIAKR), the “Target(s)” value is given as “S. aureus, S. epidermidis, C. jeikeium,; also recorded: C. xerosis, C. striatum,; also recorded: P. aeruginosa”.

Take “1T-163 (MENILIYIPMVLSPFGSGILLFLGKDRRYML)”: the “Target(s)” value is on record as “A. naeslundii, F. nucleatum, P. gingivalis,; also recorded: S. epidermidis, S. gordonii,; also recorded: S. mitis, S. mutans, S. oralis,; also recorded: S. salivarious, S. sanguinis”.

As for 1T-7 (SQRIIEPVKSPQPYPGFSVS), the “Target(s)” value is reported as “M. xanthus”.

Consider 1T-218 (KLIFAALGLVFLLIGLRDSRSK), for which the “Target(s)” value is on record as “F. nucleatum, S. sanguinis”.

In the case of 1T-127 (YDPVPKRKNKNSEGKREE), the “Target(s)” value is listed as “A. naeslundii, F. nucleatum, P. gingivalis,; also recorded: T. denticola, S. gordonii,; also recorded: S. mitis, S. mutans, S. oralis,; also recorded: S. salivarious, S. sanguinis”.

For the substance 1T-15 (DVILRVEAQ), the “Target(s)” value is “S. mutans”.

Consider “1T-137 (PLNFYRAVKENRLPLSEKNINDFTNIKLKVSPKLINLLQESSIFYNFSPKKRNTN)”, for which the “Target(s)” value was “A. naeslundii, F. nucleatum, P. gingivalis,; also recorded: S. epidermidis, S. gordonii,; also recorded: S. mitis, S. mutans, S. oralis,; also recorded: S. salivarious, S. sanguinis”.

On to 1T-14 (ALAGLAGLISGK), for which the “Target(s)” value was “S. mutans, S. aureus, S. epidermidis,; also recorded: C. xerosis”.

Regarding “1T-198 (MPVSKKRYMLSSAYATALGICYGQVATDEKESEITAIPDLLDYLSVEEYLL)”, the “Target(s)” value was “P. gingivalis, S. epidermidis, S. gordonii,; also recorded: S. mitis, S. mutans, S. oralis,; also recorded: S. sanguinis”.

For the substance 1T-239 (ADDLLNKRLTDLIMENAETVKTIDLDNSD), the “Target(s)” value is listed as “A. naeslundii, S. gordonii, S. mitis,; also recorded: S. mutans, S. oralis, S. sanguinis”.

Regarding 1T-178 (LLASHPERLSLGVFFVYRVLHLLLENT), the “Target(s)” value is “A. naeslundii, F. nucleatum, P. gingivalis,; also recorded: S. epidermidis, S. gordonii,; also recorded: S. mitis, S. mutans, S. oralis,; also recorded: S. salivarious, S. sanguinis”.

Turning to 1T-171 (SVRAVKPIDKTVARHFPGDFIVN), the “Target(s)” value is “A. naeslundii, F. nucleatum, P. gingivalis,; also recorded: S. epidermidis, S. gordonii,; also recorded: S. mitis, S. mutans, S. oralis,; also recorded: S. salivarious, S. sanguinis”.

With 1T-53 (SDILAEMFEKGELQTLVKDAAAKANA), the “Target(s)” value is recorded as “P. aeruginosa”.

Turning to 1T-8 (FSVAACGEQRAVTFVLLIEDLI), the “Target(s)” value is “M. xanthus”.

On to “1T-167 (SRMSEHSPAGLVFEVGPMDKGSFIILDSYHPTVKK)”, for which the “Target(s)” value was “A. naeslundii, F. nucleatum, P. gingivalis,; also recorded: S. epidermidis, S. gordonii,; also recorded: S. mitis, S. mutans, S. oralis,; also recorded: S. salivarious, S. sanguinis”.

1T-142 (FTQGIKRIVLKRLKED): the “Target(s)” value is listed as “A. naeslundii, F. nucleatum, P. gingivalis,; also recorded: T. denticola, S. gordonii,; also recorded: S. mitis, S. mutans, S. oralis,; also recorded: S. salivarious, S. sanguinis”.

On to “1T-113 (HGAHQRTGQRLHHHRGRTVSGCRQNPVAGVDPDEHR)”, for which the “Target(s)” value was “S. mitis”.

With 1T-123 (LVRRNAVAGRSDGLAGAEQLDLVRLQGVL), the “Target(s)” value is recorded as “S. gordonii”.
